Reference: ChEMBL document CHEMBL1201862, “PubChem BioAssay data set” (2004)
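Exposure lasted 48 hours, with cells grown in 96-well plates and compounds tested at five concentrations. Abbreviation: GI50, concentration required for 50% inhibition of growth.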 Active and inactive are the calls of the source. Cut-off read from the data, not from the text of the source: active = GI50 up to about 1.1 µM and inactive = higher.

Legend:
Test in all cases: NCI anticancer screen, dose series, 48 h
TK-10 = system: TK-10
CAKI-1 = system: CAKI-1
UO-31 = system: UO-31
A498 = system: A498
HT-29 = system: HT-29
Malme-3M = system: Malme-3M
SF-295 = system: SF-295
OVCAR-3 = system: OVCAR-3
NCI-H226 = system: NCI-H226
HOP-92 = system: HOP-92
UACC-62 = system: UACC-62
U-251 = system: U-251
K562 = system: K562
SF-268 = system: SF-268
COLO 205 = system: COLO 205
EKVX = system: EKVX
CCRF-CEM = system: CCRF-CEM
RXF 393 = system: RXF 393
MOLT-4 = system: MOLT-4
SK-MEL-2 = system: SK-MEL-2

Measured: GI50

Fc1ccc(C(OCCN2CCN(CCCc3ccccc3)CC2)c2ccc(F)cc2)cc1
inactive: TK-10 5.77 µM | CAKI-1 4.06 µM | UO-31 2.73 µM | A498 6.97 µM | HT-29 3.13 µM | Malme-3M 5.31 µM | SF-295 4.39 µM | OVCAR-3 4.15 µM | NCI-H226 3.75 µM | HOP-92 3.5 µM | UACC-62 9.08 µM | U-251 3.65 µM | K562 3.05 µM | SF-268 4.18 µM | COLO 205 2.75 µM | EKVX 4.17 µM | CCRF-CEM 4.5 µM | RXF 393 3.67 µM | MOLT-4 4.26 µM | SK-MEL-2 3.75 µM

O=C(CC1=NCCN1)c1ccccc1
inactive: CAKI-1 > 750 µM | UO-31 721 µM | A498 62.8 µM | HT-29 > 750 µM | Malme-3M > 617 µM | SF-295 > 750 µM | OVCAR-3 > 750 µM | NCI-H226 > 536 µM | HOP-92 > 319 µM | UACC-62 > 750 µM | U-251 > 750 µM | K562 > 750 µM | SF-268 > 750 µM | COLO 205 > 750 µM | EKVX > 750 µM | CCRF-CEM > 511 µM | RXF 393 > 750 µM | MOLT-4 > 750 µM | SK-MEL-2 > 750 µM

CC(C)(C)OC(=O)NC(Cc1ccccc1)C(=O)N[C@H]1c2ccsc2/C(=N/O)[C@H]1O (some centres not stated)
inactive: TK-10 > 100 µM | CAKI-1 > 100 µM | UO-31 > 100 µM | A498 > 100 µM | HT-29 > 100 µM | Malme-3M > 100 µM | SF-295 > 100 µM | OVCAR-3 > 100 µM | NCI-H226 > 100 µM | HOP-92 > 100 µM | UACC-62 > 100 µM | U-251 > 100 µM | K562 > 100 µM | COLO 205 > 100 µM | EKVX > 100 µM | CCRF-CEM > 100 µM | RXF 393 > 100 µM | MOLT-4 83 µM | SK-MEL-2 > 100 µM

COc1ccc(/C(Cl)=C(\C=O)c2ccc(OC)c(OC)c2)cc1
inactive: TK-10 68.2 µM | CAKI-1 74.5 µM | UO-31 40.5 µM | A498 35.9 µM | HT-29 29.3 µM | Malme-3M 17.4 µM | SF-295 25.4 µM | OVCAR-3 > 100 µM | NCI-H226 34.1 µM | HOP-92 20.8 µM | UACC-62 16.6 µM | U-251 29.8 µM | K562 21 µM | SF-268 30.1 µM | COLO 205 > 100 µM | EKVX 93.8 µM | CCRF-CEM 21.6 µM | MOLT-4 28.6 µM | SK-MEL-2 18.5 µM
